From patent publication US20210309666A1, “SMALL MOLECULE MDM2 PROTEIN DEGRADERS” (THE REGENTS OF THE UNIVERSITY OF MICHIGAN, priority 2018, published 2021)
Where two headings read alike, the source gives them in different places.

Experiments:
RS4;11 cells = experiment: Cell growth inhibition, 4-day proliferation assay (WST-8); format: cell-based; details: Homo sapiens, 96 h; RS4;11 cells, 4 days, WST-8; read-out: RS4; 11 Cells IC50
Procedure: The effect of representative Compounds of the Disclosure on cell viability was determined in a 4-day proliferation assay. Cells were maintained in the appropriate culture medium with 10% FBS at 37° C. and an atmosphere of 5% CO2. Also, the effect of a MDM2 inhibitor (Cpd. A; see Compound Example No. 22 of U.S. Pat. No. 8,629,141) and a known MDM2 degrader (Cpd. D, see Cpd. No. 175 of WO 2017/0176957) on cell viability in various cell lines is also included in Table 5. Cpd. […] A and D. The structure of Cpd. A is:
Cells were seeded in 96-well flat bottom (Corning COSTAR, Corning, N.Y., cat #3595) at a density of 2,000-3,000 cells/well in 100 μL of culture medium. Compounds were serially diluted in the appropriate medium, and 100 μL of the diluted compounds were added to the appropriate wells of the cell plate. After the addition of compounds, the cells were incubated at 37° C. in an atmosphere of 5% CO2 for 4 days. Cell viability was determined using the WST (2-(2-methoxy-4-nitrophenyl)-3-(4-nitrophenyl)-5-(2,4-disulfophenyl)-2H-tetrazolium, monosodium salt) Cell Counting-8 Kit (Dojindo Molecular Technologies, Inc., Rockville, Md.) according to the manufacturers' instructions.
WST-8 reagent was added to each well at a final concentration of 10% (v/v), and then the plates were incubated at 37° C. for 1-2 hours for color development. The absorbance was measured at 450 nm using a SPECTRAmax PLUS plate reader (Molecular Devices, Sunnyvale, Calif.). The readings were normalized to the DMSO-treated cells and the half maximal inhibitory concentration (IC50) was calculated by nonlinear regression (four parameters sigmoid fitted with variable slope, least squares fit, and no constraint) analysis using the GraphPad Prism 5 software (GraphPad Software, La Jolla, Calif.).

[1] = Separate PK experiment, plasma concentrations after oral dose; format: in vivo; details: mouse, 50 mg/kg, mice
Excerpt: In a separate PK experiment, the plasma concentrations of Cpd.

[2] = read-out: Plasma concentration, Average / Mean
[3] = read-out: Plasma concentration, Mouse 1
[4] = read-out: Plasma concentration, Mouse 2

Structure (SMILES)	IC50 (RS4;11 cells)	also measured
O=C1CCC(N2Cc3c(C#CC4CCN(C(=O)C56CCC(NC(=O)[C@@H]7NC8(CCCCC8)[C@@]8(C(=O)Nc9cc(Cl)ccc98)[C@H]7c7cccc(F)c7F)(CC5)CC6)CC4)cccc3C2=O)C(=O)N1 (stereo partly drawn) [Cpd. No. 14, (3′R,4′S,5′R)-6″-chloro-4′-(2,3-difluorophenyl)-N-(4-(4-((2-(2,6-dioxopiperidin-3-yl)-1-oxoisoindolin-4-yl)ethynyl)piperidine-1-carbonyl)bicyclo[2.2.2]octan-1-yl)-2″-oxodispiro[cyclohexane-1,2′-pyrrolidine-3′,3″-indoline]-5′-carboxamide]	11 nM	concentration at 1 h [1, 2]: 3300 ng/mL; concentration at 1 h [1, 3]: 4060 ng/mL; concentration at 1 h [1, 4]: 2550 ng/mL; concentration at 3 h [1, 2]: 7460 ng/mL; concentration at 3 h [1, 3]: 6880 ng/mL; concentration at 3 h [1, 4]: 8050 ng/mL; concentration at 6 h [1, 2]: 8240 ng/mL; concentration at 6 h [1, 3]: 7660 ng/mL; concentration at 6 h [1, 4]: 8810 ng/mL
CCN1[C@@H](C(=O)Nc2ccc(C(=O)N3CCC(C#Cc4cccc5c4CN(C4CCC(=O)NC4=O)C5=O)CC3)cc2)[C@H](c2cccc(Cl)c2F)[C@]2(C(=O)Nc3cc(Cl)ccc32)C12CCCCC2 (stereo partly drawn) [Cpd. No. 24, (3′R,4′S,5′R)-6″-chloro-4′-(3-chloro-2-fluorophenyl)-N-(4-(4-((2-(2,6-dioxopiperidin-3-yl)-1-oxoisoindolin-4-yl)ethynyl)piperidine-1-carbonyl)phenyl)-1′-ethyl-2″-oxodispiro[cyclohexane-1,2′-pyrrolidine-3′,3″-indoline]-5′-carboxamide]	6.6 nM	
O=C1CCC(N2Cc3c(C#CCCCNC(=O)[C@H]4CC[C@H](NC(=O)[C@@H]5NC6(CCCCC6)[C@@]6(C(=O)Nc7cc(Cl)ccc76)[C@H]5c5ccccc5F)CC4)cccc3C2=O)C(=O)N1 (stereo partly drawn) [Cpd. No. 25, (3′R,4′S,5′R)-6″-chloro-N-(4-((5-(2-(2,6-dioxopiperidin-3-yl)-1-oxoisoindolin-4-yl)pent-4-yn-1-yl)carbamoyl)cyclohexyl)-4′-(2-fluorophenyl)-2″-oxodispiro[cyclohexane-1,2′-pyrrolidine-3′,3″-indoline]-5′-carboxamide]	> 100 nM	
O=C1CCC(N2Cc3c(C#CCCCNC(=O)[C@H]4CC[C@H](NC(=O)[C@@H]5NC6(CCCCC6)[C@@]6(C(=O)Nc7cc(Cl)ccc76)[C@H]5c5cccc(Cl)c5)CC4)cccc3C2=O)C(=O)N1 (stereo partly drawn) [Cpd. No. 26, (3′R,4′R,5′R)-6″-chloro-4′-(3-chlorophenyl)-N-((1r,4R)-4-((5-(2-(2,6-dioxopiperidin-3-yl)-1-oxoisoindolin-4-yl)pent-4-yn-1-yl)carbamoyl)cyclohexyl)-2″-oxodispiro[cyclohexane-1,2′-pyrrolidine-3′,3″-indoline]-5′-carboxamide]	0.7 nM	
O=C1CCC(N2Cc3c(C#CCCCNC(=O)[C@H]4CC[C@H](NC(=O)[C@@H]5NC6(CCCCC6)[C@@]6(C(=O)Nc7cc(Cl)ccc76)[C@H]5c5ccccc5)CC4)cccc3C2=O)C(=O)N1 (stereo partly drawn) [Cpd. No. 27, (3′R,4′R,5′R)-6″-chloro-N-((1r,4R)-4-((5-(2-(2,6-dioxopiperidin-3-yl)-1-oxoisoindolin-4-yl)pent-4-yn-1-yl)carbamoyl)cyclohexyl)-2″-oxo-4′-phenyldispiro[cyclohexane-1,2′-pyrrolidine-3′,3″-indoline]-5′-carboxamide]	> 100 nM	
COc1cc(C(=O)N2CCC(C#Cc3cccc4c3CN(C3CCC(=O)NC3=O)C4=O)CC2)ccc1NC(=O)[C@@H]1NC2(CCCCC2)[C@@]2(C(=O)Nc3cc(Cl)ccc32)[C@H]1c1cccc(Cl)c1F (stereo partly drawn) [Cpd. No. 28, (3′R,4′S,5′R)-6″-chloro-4′-(3-chloro-2-fluorophenyl)-N-(4-(4-((2-(2,6-dioxopiperidin-3-yl)-1-oxoisoindolin-4-yl)ethynyl)piperidine-1-carbonyl)-2-methoxyphenyl)-2″-oxodispiro[cyclohexane-1,2′-pyrrolidine-3′,3″-indoline]-5′-carboxamide]	> 100 nM	
O=C1CCC(N2Cc3c(C#CC4CCN(C(=O)CC5CCN(C(=O)[C@@H]6NC7(CCCCC7)[C@@]7(C(=O)Nc8cc(Cl)ccc87)[C@H]6c6cccc(Cl)c6F)CC5)CC4)cccc3C2=O)C(=O)N1 (stereo partly drawn) [Cpd. No. 29, 3-(4-((1-(2-(1-((3′R,4′S,5′R)-6″-chloro-4′-(3-chloro-2-fluorophenyl)-2″-oxodispiro[cyclohexane-1,2′-pyrrolidine-3′,3″-indoline]-5′-carbonyl)piperidin-4-yl)acetyl)piperidin-4-yl)ethynyl)-1-oxoisoindolin-2-yl)piperidine-2,6-dione]	> 100 nM	
CC1(C#Cc2cccc3c2CN(C2CCC(=O)NC2=O)C3=O)CCN(C(=O)[C@H]2CC[C@H](NC(=O)[C@@H]3NC4(CCCCC4)[C@@]4(C(=O)Nc5cc(Cl)ccc54)[C@H]3c3cccc(Cl)c3F)CC2)CC1 (stereo partly drawn) [Cpd. No. 30, (3′R,4′S,5′R)-6″-chloro-4′-(3-chloro-2-fluorophenyl)-N-(4-(4-((2-(2,6-dioxopiperidin-3-yl)-1-oxoisoindolin-4-yl)ethynyl)-4-methylpiperidine-1-carbonyl)cyclohexyl)-2″-oxodispiro[cyclohexane-1,2′-pyrrolidine-3′,3″-indoline]-5′-carboxamide]	1.2 nM	
CC1(C#Cc2cccc3c2CN(C2CCC(=O)NC2=O)C3=O)CCN(C(=O)C23CCC(NC(=O)[C@@H]4NC5(CCCCC5)[C@@]5(C(=O)Nc6cc(Cl)ccc65)[C@H]4c4cccc(Cl)c4F)(CC2)CC3)CC1 (stereo partly drawn) [Cpd. No. 31, (3′R,4′S,5′R)-6″-chloro-4′-(3-chloro-2-fluorophenyl)-N-(4-(4-((2-(2,6-dioxopiperidin-3-yl)-1-oxoisoindolin-4-yl)ethynyl)-4-methylpiperidine-1-carbonyl)bicyclo[2.2.2]octan-1-yl)-2″-oxodispiro[cyclohexane-1,2′-pyrrolidine-3′,3″-indoline]-5′-carboxamide]	2.9 nM	
O=C1CCC(N2Cc3c(C#CC4CN(C(=O)[C@H]5CC[C@H](NC(=O)[C@@H]6NC7(CCCCC7)[C@@]7(C(=O)Nc8cc(Cl)ccc87)[C@H]6c6cccc(Cl)c6F)CC5)C4)cccc3C2=O)C(=O)N1 (stereo partly drawn) [Cpd. No. 32, (3′R,4′S,5′R)-6″-chloro-4′-(3-chloro-2-fluorophenyl)-N-(4-(3-((2-(2,6-dioxopiperidin-3-yl)-1-oxoisoindolin-4-yl)ethynyl)azetidine-1-carbonyl)cyclohexyl)-2″-oxodispiro[cyclohexane-1,2′-pyrrolidine-3′,3″-indoline]-5′-carboxamide]	1.3 nM	
O=C1CCC(N2Cc3c(C#CC4CN(C(=O)C56CCC(NC(=O)[C@@H]7NC8(CCCCC8)[C@@]8(C(=O)Nc9cc(Cl)ccc98)[C@H]7c7cccc(Cl)c7F)(CC5)CC6)C4)cccc3C2=O)C(=O)N1 (stereo partly drawn) [Cpd. No. 33, (3′R,4′S,5′R)-6″-chloro-4′-(3-chloro-2-fluorophenyl)-N-(4-(3-((2-(2,6-dioxopiperidin-3-yl)-1-oxoisoindolin-4-yl)ethynyl)azetidine-1-carbonyl)bicyclo[2.2.2]octan-1-yl)-2″-oxodispiro [cyclohexane-1,2′-pyrrolidine-3′,3″-indoline]-5′-carboxamide]	1.2 nM	
CC(C)[C@@H](CS(=O)(=O)C(C)C)N1C(=O)[C@@](C)(CC(=O)NCCCC#Cc2cccc3c2CN(C2CCC(=O)NC2=O)C3=O)C[C@H](c2cccc(Cl)c2)[C@H]1c1ccc(Cl)cc1 (stereo partly drawn) [Cpd. No. 37, 2-((3R,5R,6S)-5-(3-chlorophenyl)-6-(4-chlorophenyl)-1-((S)-1-(isopropylsulfonyl)-3-methylbutan-2-yl)-3-methyl-2-oxopiperidin-3-yl)-N-(5-(2-(2,6-dioxopiperidin-3-yl)-1-oxoisoindolin-4-yl)pent-4-yn-1-yl)acetamide]	> 100 nM	
CC(C)(C)C[C@@H]1N[C@@H](C(=O)NC23CCC(C(=O)N4CCC(C#Cc5cccc6c5CN(C5CCC(=O)NC5=O)C6=O)CC4)(CC2)CC3)[C@H](c2cccc(Cl)c2F)[C@@]1(C#N)c1ccc(Cl)cc1F (stereo partly shown) [Cpd. No. 38]	56 nM	
